Data taken from patent US6753297B2, “Use of indole-3-succinic acid as auxin” (priority 2001, dated 2004).

Columns and labels:
Fuchsia hybrida = test: Effectiveness of indole-3-succinic acid derivatives in root growth, procedure of Example 3; assay type: in vivo; conditions: 10^−7 M aqueous solution
Method: (§1) Five new-growth cuttings of two different varieties of Fuchsia hybrida (i.e., Varigated Fuchsia and Swingtime Fuchsia) were placed into the 50 mL solutions contained in orange plastic pill containers that were blackened with black electrician's tape. The solutions were placed in a fiberglass solar prism greenhouse (90% of UV light is filtered out of sunlight) in which the temperatures varied from 55° F. (night) to 100° F. (day). The solutions were topped with deionized water daily to the 50 mL mark to compensate for water […] and evaporation. Readings of the root growth were measured in total mm for the cuttings in a particular solution on days 7, 10, 14, 18, 22, 26, 30, and 34. These were recorded as the number of rootlets/total length (mm). […] Therefore, all data reflect the average mm root growth per survived cutting.
The process recited in Example 1 was followed to make the derivatives and they were each tested in accordance with the procedure in Example 3 in a 10^−7 M aqueous solution. The derivatives and their effectiveness compared to conventional auxins is reported below.

Swingtime Fuchsia = test: Root growth of Swingtime Fuchsia cuttings in hydroponic auxin solution; assay type: in vivo, Fuchsia hybrida; conditions: for Enhancement Ratio: Swingtime Fuchsia (SF), R = (ISAx − H2O)/(IBA − H2O), average root growth per cutting; for root growth activity compared to IBA: versus 10^−7 M IBA
Method: (§2) This example illustrates the auxin effect of each indole-3-succinic acid enantiomer and indole-3-succinic acid racemate, and compares them to IBA and water. A detailed description of this root growth study follows.
(§3) Fresh solutions were used in each experiment. Weights of hormone salts were measured to ±0.01 mg on a Mettler H-16 single-pan mechanical balance (reproducibility=±0.03 mg). Using indole-3-succinic acid R and S enantiomers as the 2×NH4^+ salt, 1.40 mg, was dissolved in 95% ethanol (20 mL) and slowly diluted to 500 mL with deionized water to make a stock solution of 1.047×10^−5 molar concentration. Dilutions were then made in the following manner.
(§4) For the concentration study (S)-indole-3-succinic acid; 2NH4^+ (98% e/e, 1.41 mg), and IBA Na(1.13 mg) were used to make stock solution of 1.055×10^−5 and 1.005×10^−5 molar, respectively. Deionized water was also used as a control.
as §1
(§5) This example compares indole-3-succinic acid enantiomers and ISA racemate to IBA and IAA. More specifically, Table 1 illustrates the relative effectiveness (in promoting root growth) of different indole-3-succinic acid solutions compared to 10^−7 M indole-3-butyric acid (IBA) and a 10^−7 M […].
(§6) This example was conducted in the same manner as in Example 2 above.

Varigated Fuchsia = test: Root growth of Varigated Fuchsia cuttings in hydroponic auxin solution; assay type: in vivo, Fuchsia hybrida; conditions: for Enhancement Ratio: Varigated Fuchsia (VF), R = (ISAx − H2O)/(IBA − H2O), average root growth per cutting; for root growth activity compared to IBA: versus 10^−7 M IBA
Method: as §2, §3, §4, §1, §5, §6

## O=C(O)CC(C(=O)O)c1c[nH]c2ccc(Br)cc12 (centres unmarked) [5-bromoindole-3-succinic acid]
Fuchsia hybrida
  Effectiveness compared to IAA: same as IAA

## CC(CC(=O)O)c1c[nH]c2ccccc12 (centres unmarked) [3′-indole-3-methylpropanoic acid]
Fuchsia hybrida
  Effectiveness compared to IBA: same as IBA

## O=C(O)CC(c1ccccc1)c1c[nH]c2ccccc12 (centres unmarked) [3′-indole-3-phenylpropanoic acid]
Fuchsia hybrida
  Effectiveness compared to IAA: 2× as effective as IAA

## O=C(O)CC(C(=O)O)c1c[nH]c2ccccc12 (racemic) [Racemic ISA, indole-3-succinic acid]
Swingtime Fuchsia; 10^−7 M
  Enhancement Ratio: 7.0
Swingtime Fuchsia; Swingtime Fuchsia
  root growth activity compared to IBA: significantly higher
other
  melting point: 196 to 198 °C

## O=C(O)C[C@@H](C(=O)O)c1c[nH]c2ccccc12 [(R)-ISA, (R)-indole-3-succinic acid]
Varigated Fuchsia; 10^−7 M
  Enhancement Ratio: 0.7
Varigated Fuchsia; 10^−8 M
  Enhancement Ratio: 4.4
Varigated Fuchsia; Varigated Fuchsia
  root growth activity compared to IBA: nearly the same activity
Swingtime Fuchsia; 10^−7 M
  Enhancement Ratio: 5.6
Swingtime Fuchsia; 10^−8 M
  Enhancement Ratio: 7.1
Swingtime Fuchsia; Swingtime Fuchsia, 10^−8 M, FIG. 5
  potency compared to the other ISA enantiomer: more potent

## O=C(O)CC(C(=O)O)c1c[nH]c2cccc(Cl)c12 (centres unmarked) [4-chloroindole-3-succinic acid]
Fuchsia hybrida
  Effectiveness compared to IAA: 22× more effective than IAA

## O=C(O)C[C@H](C(=O)O)c1c[nH]c2ccccc12 [(S)-ISA, (S)-indole-3-succinic acid]
Varigated Fuchsia; 10^−7 M
  Enhancement Ratio: 3.8
Varigated Fuchsia; 10^−8 M
  Enhancement Ratio: 4.6
Varigated Fuchsia; Varigated Fuchsia, all concentrations of ISA, FIG. 5
  potency compared to the other ISA enantiomer: more potent
Swingtime Fuchsia; 10^−7 M
  Enhancement Ratio: 5.7
Swingtime Fuchsia; 10^−8 M
  Enhancement Ratio: 4.8

## O=C(O)Cc1c[nH]c2ccccc12 [IAA, indole-3-acetic acid, reference compound]
Varigated Fuchsia; 10^−7 M
  Enhancement Ratio: 0
Varigated Fuchsia; Varigated Fuchsia
  root growth activity compared to IBA: substantially lower levels of activity
Swingtime Fuchsia; 10^−7 M
  Enhancement Ratio: 0
Swingtime Fuchsia; Swingtime Fuchsia
  root growth activity compared to IBA: substantially lower levels of activity

## O=C(O)CC(C(=O)O)c1c[nH]c2ccc(Cl)cc12 (centres unmarked) [5-chloroindole-3-succinic acid]
Fuchsia hybrida
  Effectiveness compared to IAA: 2× more effective than IAA
